Patent US12052991B2, “Substituted pyridinyloxybenzenes and salts thereof and use thereof as herbicidal agents” (Bayer Aktiengesellschaft, priority 2018, dated 2024)

Key:
Format in all cases: in vivo
[1] = system: Poa annua (POAAN); assay: Herbicidal early post-emergence action (Table A3); settings: 1900 g/ha; scored visually 9 to 12 days after treatment; 100% = plants have died, 0% = like control plants
Experimental: (§1) Seeds of monocotyledonous and dicotyledonous weed plants were placed in 96-well microtiter plates in quartz sand and grown in a climatized chamber under controlled growth conditions. 5 to 7 days after sowing, the test plants were treated at the cotyledon stage. The compounds according to the invention, formulated in the form of emulsion concentrates (EC), were applied with a water application rate of the equivalent of 2200 liters per hectare. After the test plants had been left to stand in the climatized chamber for 9 to 12 days under optimum growth conditions, the effect of the preparations was scored visually in comparison to untreated controls. For example, 100% activity=the plants have died, 0% activity=like control plants. Tables A1 to A8 below show the effects of selected compounds of the general formula (I) according to Table 1 on various harmful plants and an application rate corresponding to 1900 g/ha, which were obtained by the experimental procedure mentioned above.

[2] = system: harmful plants AGSTE, DIPTE, LOLPE, MATCH, POAAN, SETVI, STEME and VERPE; assay: Herbicidal early post-emergence action, summary of Tables A1-A8; settings: application rate of 1900 g of active ingredient per hectare; summary in words
Experimental: as §1, with “plants.” for “plants. Tables A1 to A8 below show the effects of selected compounds of the general formula (I) according to Table 1 on various harmful plants and an application rate corresponding to 1900 g/ha, which were obtained by the experimental procedure mentioned above.”
Tables A1 to A8 below show the effects of selected compounds of the general formula (I) according to Table 1 on various harmful plants and an application rate corresponding to 1900 g/ha, which were obtained by the experimental procedure mentioned above.
As the results of Tables A1-A8 show, compounds no.

[3] = system: Agrostis tenuis (AGSTE); assay: Herbicidal early post-emergence action (Table A1); settings: 1900 g/ha; scored visually 9 to 12 days after treatment; 100% = plants have died, 0% = like control plants
Experimental: as §1

[4] = system: Echinochloa crus-galli (ECHCG); assay: Herbicidal post-emergence action (Table B1); settings: 1280 g/ha; rated visually after about 3 weeks; 100% = plants have died, 0% = like control plants
Procedure, shortened: (§2)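 Weeds grown from seed in sandy loam in the greenhouse were sprayed at the one-leaf stage, 2 to 3 weeks after sowing, with WP or EC formulations in water plus 0.5% additive at 600 L/ha. Rates corresponded to 1280 or 320 g/ha; damage was rated visually versus untreated controls after about 3 weeks.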

[5] = system: Poa annua (POAAN); assay: Herbicidal post-emergence action (Table B3); settings: rated visually after about 3 weeks, 100% = plants have died, 0% = like control plants
Procedure, shortened: as §2

[6] = system: harmful plants ABUTH, AMARE, ECHCG, LOLRI, MATIN, POAAN, SETVI, STEME, ALOMY, DIGSA, KCHSC and VERPE; assay: Herbicidal post-emergence action, summary of Tables B1-B12; settings: application rate of 1280 or 320 g of active ingredient per hectare; summary in words
Procedure, shortened: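 Greenhouse weeds in sandy loam treated post-emergence at the one-leaf stage, 2–3 weeks after sowing, with WP or EC formulations sprayed with 0.5% additive at 600 L/ha water, 1280 or 320 g/ha. Damage rated visually after about 3 weeks versus untreated controls (0% = like control, 100% = dead).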

[7] = system: Veronica persica (VERPE); assay: Herbicidal post-emergence action (Table B12); settings: visual rating about 3 weeks after treatment, 100% = plants have died, 0% = like control plants
Procedure, shortened: as §2

[8] = system: harmful plants ABUTH, AMARE, ECHCG, LOLRI, MATIN, POAAN, SETVI, STEME, ALOMY, DIGSA, KCHSC and VERPE; assay: Herbicidal pre-emergence action (test C), summary of Tables C1-C12; settings: application rate of 1280 or 320 g of active ingredient per hectare; summary in words
Procedure, shortened: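 Pre-emergence pot test in sandy loam: WP or EC formulations were sprayed onto the covering soil with 0.5% additive at 600 L/ha water, at 1280 or 320 g/ha. Plants were kept in the greenhouse, and activity was rated visually about 3 weeks later as % versus untreated controls (100% = dead).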

[9] = system: Amaranthus retroflexus (AMARE); assay: Herbicidal post-emergence action (Table B6); settings: dosage 1280 g/ha; visual rating about 3 weeks after treatment; 100% = plants have died, 0% = like control plants
Procedure, shortened: as §2

[10] = system: Bassia scoparia (KCHSC); assay: Herbicidal pre-emergence action, test C (Table C11); settings: dosage 1280 g/ha, visual scoring vs untreated controls
Procedure, shortened: (§3)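 Sandy loam, doubly sown pots; surface spray pre-emergence; 1280 or 320 g/ha; 0.5% additive; 600 L/ha. Greenhouse, ~3 weeks. Visual % vs untreated.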

[11] = system: Abutilon theophrasti (ABUTH); assay: Herbicidal pre-emergence action, test C (Table C5); settings: visual scoring after about 3 weeks, 100% = plants have died, 0% = like control plants
Procedure, shortened: as §3

[12] = system: Veronica persica (VERPE); assay: Herbicidal pre-emergence action, test C (Table C12); settings: visual scoring vs untreated controls
Procedure, shortened: as §3

[13] = system: Stellaria media (STEME); assay: Herbicidal pre-emergence action, test C (Table C8); settings: visual scoring after about 3 weeks, 100% = plants have died, 0% = like control plants
Procedure, shortened: as §3

[14] = system: Amaranthus retroflexus (AMARE); assay: Herbicidal pre-emergence action, test C (Table C6); settings: visual scoring after about 3 weeks, 100% = plants have died, 0% = like control plants
Procedure, shortened: as §3

[15] = system: Alopecurus myosuroides (ALOMY); assay: Herbicidal post-emergence action (Table B9); settings: rated visually after about 3 weeks, 100% = plants have died, 0% = like control plants
Procedure, shortened: as §2

[16] = system: Setaria viridis (SETVI); assay: Herbicidal pre-emergence action, test C (Table C4); settings: dosage 1280 g/ha; visual scoring after about 3 weeks; 100% = plants have died, 0% = like control plants
Procedure, shortened: as §3

[17] = system: Stellaria media (STEME); assay: Herbicidal post-emergence action (Table B8); settings: visual rating about 3 weeks after treatment, 100% = plants have died, 0% = like control plants
Procedure, shortened: as §2

[18] = system: Digitaria sanguinalis (DIGSA); assay: Herbicidal pre-emergence action, test C (Table C10); settings: dosage 1280 g/ha; visual scoring after about 3 weeks; 100% = plants have died, 0% = like control plants
Procedure, shortened: as §3

[19] = system: Matricaria inodora (MATIN); assay: Herbicidal post-emergence action (Table B7); settings: rated visually after about 3 weeks, 100% = plants have died, 0% = like control plants
Procedure, shortened: as §2

[20] = system: Poa annua (POAAN); assay: Herbicidal pre-emergence action, test C (Table C3); settings: visual scoring after about 3 weeks, 100% = plants have died, 0% = like control plants
Procedure, shortened: as §3

[21] = system: Matricaria inodora (MATIN); assay: Herbicidal pre-emergence action, test C (Table C7); settings: visual scoring after about 3 weeks, 100% = plants have died, 0% = like control plants
Procedure, shortened: as §3

[22] = system: Alopecurus myosuroides (ALOMY); assay: Herbicidal pre-emergence action, test C (Table C9); settings: visual scoring after about 3 weeks, 100% = plants have died, 0% = like control plants
Procedure, shortened: as §3

[23] = system: Bassia scoparia (KCHSC); assay: Herbicidal post-emergence action (Table B11); settings: dosage 1280 g/ha; visual rating about 3 weeks after treatment; 100% = plants have died, 0% = like control plants
Procedure, shortened: as §2

[24] = system: Abutilon theophrasti (ABUTH); assay: Herbicidal post-emergence action (Table B5); settings: rated visually after about 3 weeks, 100% = plants have died, 0% = like control plants
Procedure, shortened: as §2

[25] = system: Echinochloa crus-galli (ECHCG); assay: Herbicidal pre-emergence action, test C (Table C1); settings: dosage 1280 g/ha; visual scoring after about 3 weeks; 100% = plants have died, 0% = like control plants
Procedure, shortened: as §3

Cc1ccc(-c2ccccc2Oc2ncc(Cl)cc2F)nc1 [Example 1-106]
Early post-emergence effect against Poa annua (POAAN) [1]: 80% | herbicidal activity against the harmful plants of Tables A1-A8 in early post-emergence treatment [2]: very good herbicidal activity

FC(F)(F)c1ccnc(-c2ccccc2Oc2ccc(Cl)cn2)c1 [Example 1-70]
Early post-emergence effect against Agrostis tenuis (AGSTE) [3]: 100% | Early post-emergence effect against Poa annua (POAAN) [1]: 100% | herbicidal activity against the harmful plants of Tables A1-A8 in early post-emergence treatment [2]: very good herbicidal activity

Fc1cc(Cl)cnc1Oc1ccccc1-c1cc(C(F)(F)F)ccn1 [Example 1-69]
Early post-emergence effect against Agrostis tenuis (AGSTE) [3]: 100% | Early post-emergence effect against Poa annua (POAAN) [1]: 100% | herbicidal activity against the harmful plants of Tables A1-A8 in early post-emergence treatment [2]: very good herbicidal activity

Fc1ccc(Oc2cccc(F)c2-c2cc(C(F)F)no2)nc1 [Example 1-41]
Early post-emergence effect against Agrostis tenuis (AGSTE) [3]: 80% | Early post-emergence effect against Poa annua (POAAN) [1]: 100% | herbicidal activity against the harmful plants of Tables A1-A8 in early post-emergence treatment [2]: very good herbicidal activity

COc1ccc(-c2cc(C(F)F)no2)c(Oc2ncc(Cl)cc2F)c1 [Example 1-37]
Early post-emergence effect against Poa annua (POAAN) [1]: 80% | herbicidal activity against the harmful plants of Tables A1-A8 in early post-emergence treatment [2]: very good herbicidal activity

Cc1cc(F)c(-c2cc(C(F)F)on2)c(Oc2ncc(Cl)cc2F)c1 [Example 1-87]
Early post-emergence effect against Agrostis tenuis (AGSTE) [3]: 80% | Early post-emergence effect against Poa annua (POAAN) [1]: 80% | herbicidal activity against the harmful plants of Tables A1-A8 in early post-emergence treatment [2]: very good herbicidal activity

CSc1cccc(Oc2ccc(Cl)cn2)c1-c1cc(C(F)F)no1 [Example 1-56]
Early post-emergence effect against Agrostis tenuis (AGSTE) [3]: 100% | Early post-emergence effect against Poa annua (POAAN) [1]: 100% | herbicidal activity against the harmful plants of Tables A1-A8 in early post-emergence treatment [2]: very good herbicidal activity

FC(F)(F)c1cncc(-c2ccccc2Oc2ccc(Cl)cn2)c1 [Example 1-73]
Early post-emergence effect against Agrostis tenuis (AGSTE) [3]: 100% | Early post-emergence effect against Poa annua (POAAN) [1]: 80% | herbicidal activity against the harmful plants of Tables A1-A8 in early post-emergence treatment [2]: very good herbicidal activity

Fc1cc(Cl)cnc1Oc1ccccc1-c1ccc(C(F)(F)F)cn1 [Example 1-66]
Early post-emergence effect against Agrostis tenuis (AGSTE) [3]: 100% | Early post-emergence effect against Poa annua (POAAN) [1]: 80% | herbicidal activity against the harmful plants of Tables A1-A8 in early post-emergence treatment [2]: very good herbicidal activity

Cc1cc(C)c(-c2cc(C(F)F)no2)c(Oc2ccccn2)c1 [Example 1-86]
Post-emergence action against Echinochloa crus-galli (ECHCG) [4]: 100% | Post-emergence action against Poa annua (POAAN) ([5]; 320 g/ha): 100% | Post-emergence action against Poa annua (POAAN) ([5]; 1280 g/ha): 100% | herbicidal activity against the harmful plants of Tables B1-B12 in post-emergence treatment [6]: very good herbicidal activity | Post-emergence action against Veronica persica (VERPE) ([7]; dosage 320 g/ha): 100% | Post-emergence action against Veronica persica (VERPE) ([7]; dosage 1280 g/ha): 100% | herbicidal activity against the harmful plants of Tables C1-C12 in pre-emergence treatment [8]: very good herbicidal activity | Post-emergence action against Amaranthus retroflexus (AMARE) [9]: 100% | Pre-emergence action against Bassia scoparia (KCHSC) [10]: 100% | Pre-emergence action against Abutilon theophrasti (ABUTH) ([11]; dosage 320 g/ha): 90% | Pre-emergence action against Abutilon theophrasti (ABUTH) ([11]; dosage 1280 g/ha): 100% | Pre-emergence action against Veronica persica (VERPE) ([12]; dosage 320 g/ha): 90% | Pre-emergence action against Veronica persica (VERPE) ([12]; dosage 1280 g/ha): 100% | Pre-emergence action against Stellaria media (STEME) ([13]; dosage 320 g/ha): 90% | Pre-emergence action against Stellaria media (STEME) ([13]; dosage 1280 g/ha): 100% | Pre-emergence action against Amaranthus retroflexus (AMARE) ([14]; dosage 320 g/ha): 100% | Pre-emergence action against Amaranthus retroflexus (AMARE) ([14]; dosage 1280 g/ha): 100% | Post-emergence action against Alopecurus myosuroides (ALOMY) ([15]; 320 g/ha): 100% | Post-emergence action against Alopecurus myosuroides (ALOMY) ([15]; 1280 g/ha): 100% | Pre-emergence action against Setaria viridis (SETVI) [16]: 100% | Post-emergence action against Stellaria media (STEME) ([17]; dosage 320 g/ha): 100% | Post-emergence action against Stellaria media (STEME) ([17]; dosage 1280 g/ha): 100% | Pre-emergence action against Digitaria sanguinalis (DIGSA) [18]: 100% | Post-emergence action against Matricaria inodora (MATIN) ([19]; 320 g/ha): 100% | Post-emergence action against Matricaria inodora (MATIN) ([19]; 1280 g/ha): 100% | Pre-emergence action against Poa annua (POAAN) ([20]; dosage 320 g/ha): 90% | Pre-emergence action against Poa annua (POAAN) ([20]; dosage 1280 g/ha): 100% | Pre-emergence action against Matricaria inodora (MATIN) ([21]; dosage 320 g/ha): 90% | Pre-emergence action against Matricaria inodora (MATIN) ([21]; dosage 1280 g/ha): 100% | Pre-emergence action against Alopecurus myosuroides (ALOMY) ([22]; dosage 320 g/ha): 90% | Pre-emergence action against Alopecurus myosuroides (ALOMY) ([22]; dosage 1280 g/ha): 90% | Post-emergence action against Bassia scoparia (KCHSC) [23]: 90% | Post-emergence action against Abutilon theophrasti (ABUTH) ([24]; 320 g/ha): 100% | Post-emergence action against Abutilon theophrasti (ABUTH) ([24]; 1280 g/ha): 100% | Pre-emergence action against Echinochloa crus-galli (ECHCG) [25]: 100%
